{"source": "patent US6399662B1", "about": "“Method and composition for the treatment of diarrhea and gastrointestinal spasms” (University of Florida, priority 2000, dated 2002)", "key": {"[1]": {"test_system": "castor oil-induced diarrhea in rats", "experiment": "Castor oil-induced diarrhea in rats", "format": "in vivo, rat (Sprague-Dawley)", "settings": "for weight loss: 30 min before castor oil 5 mL/kg, 6-h period; for stool output: 30 min before castor oil, 6-h collection period; for % reduction (weight loss) / % reduction (stool output): vs control (0 mg/kg); for % reduction (weight loss): (1.0-T/C) × 100", "protocol": "Male Sprague-Dawley rats (350-400 g, Harlan Sprague-Dawley, Indianapolis, Ind.) were fasted overnight in hanging wire cages and allowed free access to water. A typical experiment involved 20 rats: 5 untreated controls and 5 pretreated with polyamine analogues at each of three doses (typically equivalent on a molar basis to 1, 5, 10, or 25 mg/kg of DEHSPM) as either a sc injection or a po gavage 30 min prior to castor oil. All animals were then challenged with castor oil (purchased from a local drugstore) as a gastric gavage of 5 mL/kg of body weight at t=0 and monitored for the onset and duration of diarrhea at 30-min intervals for a 6-h period during which they received no food or water (Eaker, E. Y.; Bixler, G. B.; Mathias, J. R., J. Pharm Exp. Ther. 1988, 246, 786-789). Onset of diarrhea for the control rats was between 30 and 90 min and lasted for at least 6 h. The animal weight and stool weight were recorded at 2, 4, and 6 h."}, "[2]": {"test_system": "stress-induced irritable bowel syndrome in rats", "experiment": "Stress-induced irritable bowel syndrome in rats", "format": "in vivo, rat (Sprague-Dawley)", "settings": "for stool output: 30 min before stress, 6-h collection period; for % reduction (stool output): vs control (0 mg/kg), (1.0-T/C) × 100", "protocol": "Male Sprague-Dawley rats (200-350 g, Harlan Sprague-Dawley, Indianapolis, Ind.) were housed in hanging wire cages in a temperature- and humidity-controlled room with a 12hour light/dark cycle; the animals were fasted overnight (unless non-fasted rats were utilized in experiments involving PO administration) and allowed free access to water. Animal care and experimental procedures were approved by the Institutional Animal Care and Use Committee. A typical experiment involved 20 rats: 5 untreated controls and 5 pretreated with polyamine analogues at each of three doses as either a SC injection or a PO gavage 30 min prior to commencement of the stress. All animals were then housed in individual polycarbonate cages containing a clear 70×50 mm Pyrex crystallization dish inverted in the center. To begin the stress, water was added to each cage to within 0.5 cm of the top of the Pyrex dish. The fecal output of the animals was recorded at 30-min intervals for a 6-h period, during which they received no food or water. Stool output was expressed as the number of fecal pellets excreted over the 6-h collection period. Percent reduction was calculated by dividing the mean value from the treated animals (T) by the mean value from the control animals (C), subtracting the resulting quotient from 1.0, and multiplying by 100 [i.e., (1.0−T/C)×100]."}, "[3]": {"test_system": "small intestine", "settings": "rats; previously reported; cited from earlier work"}, "[4]": {"settings": "mice; HSPM formed by N-deethylation of DEHSPM; cited from earlier work"}, "[5]": {"settings": "dog; compared with 2-3 weeks in mice; cited from earlier work"}, "[6]": {"settings": "sc 0.03125 mg/kg (0.0726 μmol/kg)"}}, "note": "Structures can show the parent of a compound that is named as a salt.", "data": [{"smiles": "CCNCCCN[C@H]1CC[C@H](NCCCNCC)CC1", "note": "[CHX(3,4,3)-trans, N,N′-Bis[3-(ethylamino)propyl]-trans-1,4-cyclohexanediamine tetrahydrochloride]", "values": [{"measurement": "weight loss", "setting": "[1]; sc 0.0078 mg/kg (0.0181 μmol/kg)", "value": "8.8 ± 1.2 g of weight lost per 350 g of rat weight"}, {"measurement": "stool output", "setting": "[1]; sc 0.0078 mg/kg", "value": "3.6 ± 1.3 g of stool excreted per 350 g of rat weight"}, {"measurement": "% reduction (weight loss)", "setting": "[1]; sc 0.0078 mg/kg", "value": 24, "unit": "%"}, {"measurement": "weight loss", "setting": "[1]; sc 0.0156 mg/kg (0.036 μmol/kg)", "value": "3.1 ± 1.2 g of weight lost per 350 g of rat weight"}, {"measurement": "stool output", "setting": "[1]; sc 0.0156 mg/kg", "value": "0.4 ± 0.9 g of stool excreted per 350 g of rat weight"}, {"measurement": "% reduction (stool output)", "setting": "[1]; sc 0.0156 mg/kg", "value": 92, "unit": "%"}, {"measurement": "% reduction (weight loss)", "setting": "[1]; sc 0.0156 mg/kg", "value": 73, "unit": "%"}, {"measurement": "weight loss", "setting": "[1]; [6]", "value": "4.2 ± 1.7 g of weight lost per 350 g of rat weight"}, {"measurement": "stool output", "setting": "[1]; sc 0.03125 mg/kg", "value": "0 ± 0 g of stool excreted per 350 g of rat weight"}, {"measurement": "% reduction (stool output)", "setting": "[1]; sc 0.03125 mg/kg", "value": 100, "unit": "%"}, {"measurement": "% reduction (weight loss)", "setting": "[1]; sc 0.03125 mg/kg", "value": 64, "unit": "%"}, {"measurement": "weight loss", "setting": "[1]; sc 0.125 mg/kg (0.29 μmol/kg)", "value": "4.1 ± 0.7 g of weight lost per 350 g of rat weight"}, {"measurement": "stool output", "setting": "[1]; sc 0.125 mg/kg", "value": "0 ± 0 g of stool excreted per 350 g of rat weight"}, {"measurement": "% reduction (stool output)", "setting": "[1]; sc 0.125 mg/kg", "value": 100, "unit": "%"}, {"measurement": "% reduction (weight loss)", "setting": "[1]; sc 0.125 mg/kg", "value": 65, "unit": "%"}, {"measurement": "weight loss", "setting": "[1]; sc 0.25 mg/kg (0.58 μmol/kg)", "value": "2.7 ± 0.7 g of weight lost per 350 g of rat weight"}, {"measurement": "stool output", "setting": "[1]; sc 0.25 mg/kg", "value": "0 ± 0 g of stool excreted per 350 g of rat weight"}, {"measurement": "% reduction (stool output)", "setting": "[1]; sc 0.25 mg/kg", "value": 100, "unit": "%"}, {"measurement": "% reduction (weight loss)", "setting": "[1]; sc 0.25 mg/kg", "value": 77, "unit": "%"}, {"measurement": "weight loss", "setting": "[1]; sc 0.5 mg/kg (1.16 μmol/kg)", "value": "2.9 ± 0.1 g of weight lost per 350 g of rat weight"}, {"measurement": "stool output", "setting": "[1]; sc 0.5 mg/kg", "value": "0 ± 0 g of stool excreted per 350 g of rat weight"}, {"measurement": "% reduction (stool output)", "setting": "[1]; sc 0.5 mg/kg", "value": 100, "unit": "%"}, {"measurement": "% reduction (weight loss)", "setting": "[1]; sc 0.5 mg/kg", "value": 75, "unit": "%"}, {"measurement": "weight loss", "setting": "[1]; sc 0.625 mg/kg (0.145 μmol/kg)", "value": "3.7 ± 0.8 g of weight lost per 350 g of rat weight"}, {"measurement": "stool output", "setting": "[1]; sc 0.625 mg/kg (0.145 μmol/kg)", "value": "0 ± 0 g of stool excreted per 350 g of rat weight"}, {"measurement": "% reduction (stool output)", "setting": "[1]; sc 0.625 mg/kg (0.145 μmol/kg)", "value": 100, "unit": "%"}, {"measurement": "% reduction (weight loss)", "setting": "[1]; sc 0.625 mg/kg (0.145 μmol/kg)", "value": 68, "unit": "%"}, {"measurement": "weight loss", "setting": "[1]; sc 0.99 mg/kg (2.3 μmol/kg)", "value": "2.7 ± 1.3 g of weight lost per 350 g of rat weight"}, {"measurement": "stool output", "setting": "[1]; sc 0.99 mg/kg", "value": "0 ± 0 g of stool excreted per 350 g of rat weight"}, {"measurement": "% reduction (stool output)", "setting": "[1]; sc 0.99 mg/kg", "value": 100, "unit": "%"}, {"measurement": "% reduction (weight loss)", "setting": "[1]; sc 0.99 mg/kg", "value": 77, "unit": "%"}, {"measurement": "weight loss", "setting": "[1]; sc 4.97 mg/kg (11.6 μmol/kg)", "value": "1.6 ± 1.1 g of weight lost per 350 g of rat weight"}, {"measurement": "stool output", "setting": "[1]; sc 4.97 mg/kg", "value": "0 ± 0 g of stool excreted per 350 g of rat weight"}, {"measurement": "% reduction (stool output)", "setting": "[1]; sc 4.97 mg/kg", "value": 100, "unit": "%"}, {"measurement": "% reduction (weight loss)", "setting": "[1]; sc 4.97 mg/kg", "value": 86, "unit": "%"}, {"measurement": "weight loss", "setting": "[1]; sc 24.87 mg/kg (57.8 μmol/kg)", "value": "0.8 ± 0.7 g of weight lost per 350 g of rat weight"}, {"measurement": "stool output", "setting": "[1]; sc 24.87 mg/kg", "value": "0 ± 0 g of stool excreted per 350 g of rat weight"}, {"measurement": "% reduction (stool output)", "setting": "[1]; sc 24.87 mg/kg", "value": 100, "unit": "%"}, {"measurement": "% reduction (weight loss)", "setting": "[1]; sc 24.87 mg/kg", "value": 93, "unit": "%"}, {"measurement": "stool output relative to controls (in words)", "setting": "[1]; sc doses of 0.0156 mg/kg to 24.9 mg/kg, P<0.001 for all doses", "value": "significantly decreased stool output"}, {"measurement": "reduction in weight loss (in words)", "setting": "[1]; sc, doses ranging from 0.0078 mg/kg to 24.9 mg/kg, all dose levels, P<0.005 to P<0.001", "value": "significant reduction in weight loss"}, {"measurement": "fecal output after oral administration (in words)", "setting": "[2]; oral, doses ≧5 mg/kg, P≦0.001", "value": "diminished fecal output"}, {"measurement": "stool output", "setting": "[2]; [6]", "value": "5.4 ± 2.1 number of fecal pellets"}, {"measurement": "% reduction (stool output)", "setting": "[2]; sc 0.03125 mg/kg", "value": 52.2, "unit": "%"}, {"measurement": "stool output", "setting": "[2]; sc 0.0625 mg/kg (0.145 μmol/kg)", "value": "2.2 ± 1.3 number of fecal pellets"}, {"measurement": "% reduction (stool output)", "setting": "[2]; sc 0.0625 mg/kg", "value": 80.5, "unit": "%"}, {"measurement": "stool output", "setting": "[2]; sc 0.125 mg/kg (0.29 μmol/kg)", "value": "0.6 ± 0.9 number of fecal pellets"}, {"measurement": "% reduction (stool output)", "setting": "[2]; sc 0.125 mg/kg", "value": 94.7, "unit": "%"}, {"measurement": "stool output", "setting": "[2]; sc 0.25 mg/kg (0.58 μmol/kg)", "value": "0 ± 0 number of fecal pellets"}, {"measurement": "% reduction (stool output)", "setting": "[2]; sc 0.25 mg/kg", "value": 100, "unit": "%"}, {"measurement": "stool output", "setting": "[2]; sc 0.5 mg/kg (1.16 μmol/kg)", "value": "0 ± 0 number of fecal pellets"}, {"measurement": "% reduction (stool output)", "setting": "[2]; sc 0.5 mg/kg", "value": 100, "unit": "%"}, {"measurement": "stool output", "setting": "[2]; sc 0.99 mg/kg (2.3 μmol/kg)", "value": "0 ± 0 number of fecal pellets"}, {"measurement": "% reduction (stool output)", "setting": "[2]; sc 0.99 mg/kg", "value": 100, "unit": "%"}, {"measurement": "reduction in fecal output (in words)", "setting": "[2]; sc, doses ranging from 0.03 mg/kg to 0.99 mg/kg, all dose levels, P<0.001", "value": "significant reduction in fecal output"}]}, {"smiles": "CCNCCCCNCCCCNCCCCNCC", "note": "[DEHSPM, N^1, N^14 diethylhomospermine]", "values": [{"measurement": "myoelectric activity and transit of the small intestine (in words)", "setting": "[3]", "value": "inhibited"}]}, {"smiles": "NCCCCNCCCCNCCCCN", "note": "[HSPM, homospermine]", "values": [{"measurement": "half life", "setting": "[4]", "value": "2-3 weeks"}, {"measurement": "half life (in words)", "setting": "[5]", "value": "even longer"}]}]}
